These are literature values, as cited in patent US9131678B1, “Ultraviolet strategy for avian repellency” (The United States of America, as represented by the …, priority 2009, dated 2015).

In data set [1] the test system is male red-winged blackbirds. To be noted: 2,500 ppm caffeine, male red-winged blackbirds in captivity.
The test system of a further data set is Blackbirds. The following applies: rice seeds treated with 10,000 ppm caffeine, field conditions; >80% of untreated rice seeds consumed.

`Cn1c(=O)c2c(ncn2C)n(C)c1=O` [caffeine]: in data set [1], the “reduction of rice consumption” value was 76%. Moreover, in the data set on Blackbirds, the rice seeds consumed is less than 10%.
